Here are results for 13 compounds from ChEMBL document CHEMBL3991601, “The target landscape of clinical kinase drugs” (Science, 2017).

The target in experiment [1] is T1, Membrane-associated tyrosine- and threonine-specific cdc2-inhibitory kinase (Homo sapiens, UniProt Q99640).
T1 sequence (Q99640 whole entry): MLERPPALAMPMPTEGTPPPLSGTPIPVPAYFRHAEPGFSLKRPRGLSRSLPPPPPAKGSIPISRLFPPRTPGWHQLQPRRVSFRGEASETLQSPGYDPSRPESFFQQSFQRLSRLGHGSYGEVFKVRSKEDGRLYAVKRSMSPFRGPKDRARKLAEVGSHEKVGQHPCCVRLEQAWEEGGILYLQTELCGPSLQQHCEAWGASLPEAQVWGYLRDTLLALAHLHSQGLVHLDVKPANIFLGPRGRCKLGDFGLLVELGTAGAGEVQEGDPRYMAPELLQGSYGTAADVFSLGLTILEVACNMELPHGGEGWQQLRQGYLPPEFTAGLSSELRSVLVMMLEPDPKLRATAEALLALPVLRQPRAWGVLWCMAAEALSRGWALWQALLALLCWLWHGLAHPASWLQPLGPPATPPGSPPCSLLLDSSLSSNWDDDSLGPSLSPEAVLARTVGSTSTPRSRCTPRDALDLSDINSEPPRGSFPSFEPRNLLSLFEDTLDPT

Experiment [2] has as its target T2, Exosome RNA helicase MTR4 (Homo sapiens, UniProt P42285).
T2 sequence (P42285 whole entry): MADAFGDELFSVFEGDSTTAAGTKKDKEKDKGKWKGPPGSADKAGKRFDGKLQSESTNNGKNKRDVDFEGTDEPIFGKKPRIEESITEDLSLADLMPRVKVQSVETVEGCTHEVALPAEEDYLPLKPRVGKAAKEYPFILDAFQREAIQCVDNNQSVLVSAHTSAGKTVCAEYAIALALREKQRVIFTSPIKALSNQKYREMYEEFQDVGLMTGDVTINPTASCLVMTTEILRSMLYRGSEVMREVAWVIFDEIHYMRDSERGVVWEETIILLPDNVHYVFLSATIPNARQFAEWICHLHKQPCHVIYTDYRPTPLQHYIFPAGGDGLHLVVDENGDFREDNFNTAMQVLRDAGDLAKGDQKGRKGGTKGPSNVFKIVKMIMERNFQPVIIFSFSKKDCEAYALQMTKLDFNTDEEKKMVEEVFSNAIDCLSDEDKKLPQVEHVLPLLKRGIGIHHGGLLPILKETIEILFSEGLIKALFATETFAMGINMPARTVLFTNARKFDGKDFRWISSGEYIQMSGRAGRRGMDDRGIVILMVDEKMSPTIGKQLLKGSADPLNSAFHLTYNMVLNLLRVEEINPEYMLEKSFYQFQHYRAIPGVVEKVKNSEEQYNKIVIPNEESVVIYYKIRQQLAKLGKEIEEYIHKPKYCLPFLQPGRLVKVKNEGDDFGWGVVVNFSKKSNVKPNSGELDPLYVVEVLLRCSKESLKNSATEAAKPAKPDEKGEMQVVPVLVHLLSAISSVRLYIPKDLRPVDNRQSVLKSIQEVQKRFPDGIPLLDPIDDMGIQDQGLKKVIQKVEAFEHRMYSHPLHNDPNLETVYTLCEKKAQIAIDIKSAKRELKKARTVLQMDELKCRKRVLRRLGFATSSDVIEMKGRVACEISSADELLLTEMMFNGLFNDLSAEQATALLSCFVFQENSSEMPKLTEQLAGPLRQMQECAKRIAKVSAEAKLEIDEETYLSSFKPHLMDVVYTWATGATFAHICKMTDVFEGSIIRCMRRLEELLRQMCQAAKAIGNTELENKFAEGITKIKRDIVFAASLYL

The target of experiment [3] is T3, Serine/threonine-protein kinase Nek9 (Homo sapiens, UniProt Q8TD19).
T3 sequence (Q8TD19 whole entry): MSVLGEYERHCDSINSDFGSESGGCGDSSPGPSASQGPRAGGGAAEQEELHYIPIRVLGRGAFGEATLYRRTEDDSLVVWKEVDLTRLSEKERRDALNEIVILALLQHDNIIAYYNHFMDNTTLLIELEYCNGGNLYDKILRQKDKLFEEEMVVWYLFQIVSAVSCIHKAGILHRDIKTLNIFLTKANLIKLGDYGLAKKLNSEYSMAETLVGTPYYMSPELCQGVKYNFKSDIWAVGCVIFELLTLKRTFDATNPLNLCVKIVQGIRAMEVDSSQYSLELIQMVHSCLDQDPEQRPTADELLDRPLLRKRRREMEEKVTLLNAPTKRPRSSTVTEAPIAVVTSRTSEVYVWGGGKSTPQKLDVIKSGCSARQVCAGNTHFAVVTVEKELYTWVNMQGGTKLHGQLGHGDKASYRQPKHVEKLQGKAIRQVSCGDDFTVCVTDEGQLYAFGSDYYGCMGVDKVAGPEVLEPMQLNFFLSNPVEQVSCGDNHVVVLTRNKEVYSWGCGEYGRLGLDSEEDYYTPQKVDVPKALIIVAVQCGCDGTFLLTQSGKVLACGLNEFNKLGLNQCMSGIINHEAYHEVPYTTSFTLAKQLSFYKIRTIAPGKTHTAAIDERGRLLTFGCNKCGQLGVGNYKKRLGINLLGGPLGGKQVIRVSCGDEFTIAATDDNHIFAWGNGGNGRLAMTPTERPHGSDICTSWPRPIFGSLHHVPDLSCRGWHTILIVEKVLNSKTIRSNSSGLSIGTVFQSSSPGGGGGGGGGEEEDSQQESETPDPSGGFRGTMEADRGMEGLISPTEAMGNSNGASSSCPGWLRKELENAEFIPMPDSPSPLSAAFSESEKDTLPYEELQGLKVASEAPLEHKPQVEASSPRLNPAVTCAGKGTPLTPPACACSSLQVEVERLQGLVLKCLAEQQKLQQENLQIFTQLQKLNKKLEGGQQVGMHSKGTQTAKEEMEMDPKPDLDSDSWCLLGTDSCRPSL

The next experiment has as its target T4, Pyridoxal kinase (Homo sapiens, UniProt O00764).
T4 sequence (O00764 whole entry): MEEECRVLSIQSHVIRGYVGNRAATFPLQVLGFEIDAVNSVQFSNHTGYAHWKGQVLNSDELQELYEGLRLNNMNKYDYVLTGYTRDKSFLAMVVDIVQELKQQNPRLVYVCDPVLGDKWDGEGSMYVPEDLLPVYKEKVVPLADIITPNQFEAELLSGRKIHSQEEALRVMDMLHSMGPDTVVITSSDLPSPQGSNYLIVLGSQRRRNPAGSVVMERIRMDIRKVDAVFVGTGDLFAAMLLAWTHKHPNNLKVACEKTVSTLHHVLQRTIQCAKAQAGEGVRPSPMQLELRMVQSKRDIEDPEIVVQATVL

Experiment [4] deals with NADH dehydrogenase [ubiquinone] 1 alpha subcomplex subunit 13 (Homo sapiens, UniProt Q9P0J0).
The target of experiment [5] is Cyclin-dependent kinase 4 (Homo sapiens, UniProt P11802).
Experiment [6] concerns the target TRAF2 and NCK-interacting protein kinase (Homo sapiens, UniProt Q9UKE5).

Active and inactive are the calls of the source.
Further: in the data inactive means no Kd found up to 30 µM.

Cyclin-dependent kinase 4, sequence (P11802 whole entry): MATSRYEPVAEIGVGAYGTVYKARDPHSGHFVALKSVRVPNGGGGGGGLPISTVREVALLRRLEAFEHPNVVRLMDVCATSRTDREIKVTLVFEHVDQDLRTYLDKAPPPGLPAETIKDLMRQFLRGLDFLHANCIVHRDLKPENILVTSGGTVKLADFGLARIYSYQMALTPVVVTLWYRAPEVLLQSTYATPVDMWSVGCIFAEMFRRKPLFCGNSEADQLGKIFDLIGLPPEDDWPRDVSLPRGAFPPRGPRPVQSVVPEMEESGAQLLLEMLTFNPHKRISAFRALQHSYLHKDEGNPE
NADH dehydrogenase [ubiquinone] 1 alpha subcomplex subunit 13, sequence (Q9P0J0 whole entry, one chain of several): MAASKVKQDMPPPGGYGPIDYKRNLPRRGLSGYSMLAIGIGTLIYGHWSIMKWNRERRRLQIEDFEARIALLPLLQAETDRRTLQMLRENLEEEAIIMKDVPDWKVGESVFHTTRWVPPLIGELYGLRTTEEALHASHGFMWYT
TRAF2 and NCK-interacting protein kinase, sequence (Q9UKE5 whole entry): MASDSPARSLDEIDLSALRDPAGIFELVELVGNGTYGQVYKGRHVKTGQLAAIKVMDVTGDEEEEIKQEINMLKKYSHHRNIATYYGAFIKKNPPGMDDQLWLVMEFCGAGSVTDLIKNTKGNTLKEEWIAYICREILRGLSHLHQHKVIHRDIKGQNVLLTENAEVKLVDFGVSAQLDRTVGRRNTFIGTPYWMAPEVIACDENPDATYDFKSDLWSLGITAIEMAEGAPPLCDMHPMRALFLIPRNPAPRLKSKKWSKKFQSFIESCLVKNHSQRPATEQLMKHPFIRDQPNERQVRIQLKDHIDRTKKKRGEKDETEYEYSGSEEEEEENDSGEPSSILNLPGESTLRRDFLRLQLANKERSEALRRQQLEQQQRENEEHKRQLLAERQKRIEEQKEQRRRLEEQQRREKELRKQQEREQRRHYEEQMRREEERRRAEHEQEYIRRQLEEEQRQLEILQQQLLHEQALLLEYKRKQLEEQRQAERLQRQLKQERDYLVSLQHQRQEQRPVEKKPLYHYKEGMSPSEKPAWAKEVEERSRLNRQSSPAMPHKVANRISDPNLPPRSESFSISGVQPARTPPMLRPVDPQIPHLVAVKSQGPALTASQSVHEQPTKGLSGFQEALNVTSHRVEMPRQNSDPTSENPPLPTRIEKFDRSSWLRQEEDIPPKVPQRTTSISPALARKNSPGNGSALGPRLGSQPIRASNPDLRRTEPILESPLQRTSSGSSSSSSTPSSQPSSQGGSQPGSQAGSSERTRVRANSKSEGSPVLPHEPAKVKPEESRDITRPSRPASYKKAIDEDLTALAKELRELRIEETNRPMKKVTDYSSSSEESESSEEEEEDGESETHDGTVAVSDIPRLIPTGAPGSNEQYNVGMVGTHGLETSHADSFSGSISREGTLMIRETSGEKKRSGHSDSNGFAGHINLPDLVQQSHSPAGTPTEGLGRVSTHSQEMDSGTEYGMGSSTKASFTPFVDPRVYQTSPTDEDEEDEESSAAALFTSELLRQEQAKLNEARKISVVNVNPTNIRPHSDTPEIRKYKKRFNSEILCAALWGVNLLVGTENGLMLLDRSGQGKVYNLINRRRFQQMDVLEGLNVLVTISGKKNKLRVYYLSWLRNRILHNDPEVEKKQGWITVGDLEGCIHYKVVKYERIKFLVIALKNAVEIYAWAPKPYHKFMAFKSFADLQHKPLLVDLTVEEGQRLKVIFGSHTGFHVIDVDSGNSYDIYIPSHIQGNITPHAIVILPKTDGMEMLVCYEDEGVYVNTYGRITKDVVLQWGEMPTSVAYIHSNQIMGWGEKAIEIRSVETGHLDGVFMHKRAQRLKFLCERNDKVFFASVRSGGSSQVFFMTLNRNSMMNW

The term Kd denotes the concentration at which binding is half-saturated. As to `COc1cc(OC)c(/C=C/S(=O)(=O)Cc2ccc(OC)c(NCC(=O)O)c2)c(OC)c1` [RIGOSERTIB], the Kd (in experiment [1]; in experiment [2]; in experiment [3]; on Pyridoxal kinase; in experiment [4]; in experiment [5]) was > 30 µM (inactive) throughout. Moreover, the Kd in experiment [6] is > 30 µM (inactive).
On to `CC[C@H](Nc1ncnc2[nH]cnc12)c1nc2cccc(F)c2c(=O)n1-c1ccccc1` [IDELALISIB], for which the Kd (in experiment [1]; in experiment [2]; in experiment [3]; on Pyridoxal kinase; in experiment [4]; in experiment [5]) was > 30 µM (inactive) each time. The Kd in experiment [6] is > 30 µM (inactive).
For the compound `CN1N=C(N)c2cn([C@@H]3O[C@H](COP(=O)(O)O)[C@@H](O)[C@H]3O)c3ncnc1c23` [TRICIRIBINE PHOSPHATE], the Kd (in experiment [1]; in experiment [2]; in experiment [3]; on Pyridoxal kinase; in experiment [4]; in experiment [5]) was > 30 µM (inactive) throughout. Also, the Kd in experiment [6] was > 30 µM (inactive).
Consider `CNC(=O)CN1CCC(Oc2cc3c(Nc4cccc(Cl)c4F)ncnc3cc2OC)CC1` [SAPITINIB], for which the Kd (in experiment [1]; in experiment [2]; in experiment [3]; on Pyridoxal kinase; in experiment [4]; in experiment [5]) was > 30 µM (inactive) each time. In addition, the Kd in experiment [6] was > 30 µM (inactive).
In the case of `O=C(c1ccc(F)c(F)c1Nc1ccc(I)cc1F)N1CC(O)([C@@H]2CCCCN2)C1` [COBIMETINIB], the Kd (in experiment [1]; in experiment [2]; in experiment [3]; at Pyridoxal kinase; in experiment [4]; in experiment [5]) was > 30 µM (inactive) in each case. Besides, the Kd in experiment [6] is > 30 µM (inactive).
For the compound `Cc1ccc(S(=O)(=O)Nc2nc3ccccc3nc2Nc2ccc3nsnc3c2)cc1`, the Kd (in experiment [1]; in experiment [2]; in experiment [3]; on Pyridoxal kinase; in experiment [4]; in experiment [5]) was > 30 µM (inactive) throughout. Further, in experiment [6], the Kd is > 30 µM (inactive).
Regarding `CCS(=O)(=O)N1CC(CC#N)(n2cc(-c3ncnc4[nH]ccc34)cn2)C1` [BARICITINIB], the Kd (in experiment [1]; in experiment [2]; in experiment [3]; on Pyridoxal kinase; in experiment [4]; in experiment [5]) was > 30 µM (inactive) each time. In addition, the Kd in experiment [6] was > 30 µM (inactive).
Take `Cc1ccc(NC(=O)c2ccc(CN3CC[C@H](N(C)C)C3)c(C(F)(F)F)c2)cc1Nc1nccc(-c2cncnc2)n1` [BAFETINIB]: the Kd (in experiment [1]; in experiment [2]; in experiment [3]; at Pyridoxal kinase; in experiment [4]; in experiment [5]) was > 30 µM (inactive) each time. For the same compound, the Kd in experiment [6] is > 30 µM (inactive).
For the compound `O=C(Nc1cccc(Cl)c1)Nc1ncc(CCNc2ncnc3ccsc23)s1` [SNS-314], the Kd (in experiment [1]; in experiment [2]; in experiment [3]; at Pyridoxal kinase; in experiment [4]; in experiment [5]) was > 30 µM (inactive) in each case. Besides, the Kd in experiment [6] is > 30 µM (inactive).
Regarding `Cc1ccc(-n2nc(C(C)(C)C)cc2NC(=O)NCc2cc(F)ccc2Oc2ccc3c(cnn3CCO)c2)cc1` [PEXMETINIB], the Kd (in experiment [1]; in experiment [2]; in experiment [3]; at Pyridoxal kinase; in experiment [4]; in experiment [5]) was > 30 µM (inactive) in each case. In experiment [6], the Kd was > 30 µM (inactive).
As for `COc1ccc(-c2ccc3c(N4CCOC[C@@H]4C)nc(N4CCOC[C@@H]4C)nc3n2)cc1CO` [AZD-8055], the Kd (in experiment [1]; in experiment [2]; in experiment [3]; on Pyridoxal kinase; in experiment [4]; in experiment [5]) was > 30 µM (inactive) each time. For the same compound, the Kd in experiment [6] was > 30 µM (inactive).
Consider `C1=C/COCc2cc(ccc2OCCN2CCCC2)Nc2nccc(n2)-c2cccc(c2)COC/1` [PACRITINIB], for which the Kd in experiment [1] is > 30 µM (inactive); in experiment [2] it was > 30 µM (inactive); in experiment [3] it was 1.78 µM (active); at Pyridoxal kinase, > 30 µM (inactive); in experiment [4] it was > 30 µM (inactive); in experiment [5], > 30 µM (inactive). This compound also gave a Kd in experiment [6] of 0.089 µM.
As for `O=C(O)[C@]1(Cc2cccc(Nc3nccs3)n2)CC[C@@H](Oc2cccc(Cl)c2F)CC1` [MK-5108], the Kd (in experiment [1]; in experiment [2]; in experiment [3]; at Pyridoxal kinase; in experiment [4]; in experiment [5]) was > 30 µM (inactive) throughout. For the same compound, the Kd in experiment [6] is > 30 µM (inactive).
